{"source": "patent US20060051868A1", "about": "“Methods for increasing conifer somatic embryo initiation, capture, and multiplication” (priority 2001, published 2006)", "type_in_all_cases": "cell-based", "key": {"[1]": {"system": "slash pine megagametophyte", "assay": "Initiation frequency of embryogenic cultures from slash pine megagametophytes", "conditions": "1.0 ppm paclobutrazol in media #1369B (Media 1374); 8 weeks, dark; control 19.3", "description": "A further representative example in conifer to show the effects of gibberellin inhibitors in a buffered media is slash pine. Three cone collections with embryos at stages 2-4 were chosen. Removed seeds were soaked in running water for […]. and then agitated in 10% liquinox containing 1.1 ml/l Tween 20 for an additional 10 min. Seeds were sterilized in a laminar flood by agitating in 20% H2O2 for 10 min. Seeds were rinsed in sterilized water for 5 cycles of 5 to 10 min. each. The sterile seeds were placed into a sterile petri dish and dissected. The dissection was performed by splitting the seed coat, removing the integuments and nucellus, and placing the megagametophyte on the test medium. Test media #1374 contains the components of media #1369B and 1.0 ppm paclobutrazol. 2 ml of the appropriate media was poured into multi-well plates sufficient for 10 replications for each genotype. The plates were then incubated in the dark for 8 weeks at 24-26° C."}, "[2]": {"system": "Douglas-fir zygotic embryos", "assay": "Initiation frequency of embryogenic cultures from Douglas-fir zygotic embryos", "conditions": "1.0 ppm in media #121 (Media 1323); 8-9 weeks, dark; control 16.4", "description": "Four Douglas-fir cone collections with zygotic embryos at stages 2-4 were chosen. Cones were supplied by The Timber Co. from Cottage Grove, Oregon. Seeds were removed from their cones, soaked in running water for 10 min., and agitated in 10% liquinox containing 1.1 ml/l Tween 20 for an additional 10 min. The seeds were then rinsed with running tap water for 30 min. Seeds were transferred into a laminar flow hood where they were sterilized by agitating in 20% H2O2 for 10 min. Seeds were rinsed in sterilized water for 5 cycles of 5 to 10 min. each. The sterile seeds were placed into a sterile petri dish and dissected. The dissection was performed by splitting the ovule, gently removing the dominant embryo while leaving the suspensor intact, and placing both the embryo and the connected female gametophyte on the test medium. Test medium #1323 is the same as control media #121 but contains 1.0 ppm paclobutrazol. 2 ml of the appropriate medium was poured into multi-well plates sufficient for 10 replications per cone collection. The plates were incubated in the dark for 8-9 weeks at 24-26° C. […] Four Douglas-fir cone collections with zygotic embryos at stages 2-4 were chosen. […] The initiation frequency for the four cone collections with the addition of salts, paclobutrazol, and brassinolide enclosed in a nylon bag was determined to be 38.6%. […]"}, "[3]": {"system": "Norway Spruce embryo and female gametophyte", "assay": "Initiation frequency of embryogenic cultures from Norway Spruce seed embryos", "conditions": "base media #56; MES 0.25 gm/l (Media 1362); vitamins 0.05 ppm biotin + 0.5 ppm folic acid (Media 1363); nine weeks, light; control 38.5", "description": "Mature Norway Spruce seeds were soaked in running water for 1 hour at room temperature and then stored in water for 24 hours in a refrigerator at 4° C. The seeds were sterilized by agitation in 10% liquinox containing 1.1 ml/l Tween 20 for 10 minutes followed by a 30 minute rinse with running tap water. In a sterile laminar flow hood, the rinsed seeds were agitated in 20% H2O2 for 10 min., then again rinsed with sterile deionized water for 5 cycles of 5 to 10 min. each. The sterile Norway Spruce seeds were placed into petri dishes onto sterile moistened filter paper for dissection. Seeds were opened and the female gametophyte removed. The female gametophyte was placed on its side and further opened. The embryo was removed from the gametophyte and placed onto a test medium next to the female gametophyte. Petri dishes containing the embryo and gametophyte were covered and wrapped with Parafilm® and incubated in light at 23-24° C. for nine weeks. The control-medium used for Norway Spruce was media #56. Refer to Table 21 for a detailed listing of media components. The three test media contained combinations of buffering reagent MES and/or vitamins. […] Initiation frequency was determined to be 38.5% for the control media, while the frequency on the control medium with the addition of 0.33 ppm paclobutrazol averaged roughly 48.5%. […]"}}}
{"smiles": "CC(C)(C)[C@@H](O)[C@@H](Cc1ccc(Cl)cc1)n1cncn1", "note": "(racemic) [paclobutrazol]", "values": [{"measurement": "Initiation Frequency (%)", "setting": "[1]", "result": 28.5, "unit": "%"}, {"measurement": "Initiation Frequency (%)", "setting": "[2]", "result": 24.4, "unit": "%"}]}
{"smiles": "O=S(=O)(O)CCN1CCOCC1", "note": "[MES, 2-(N-morpholino)-ethanesulfonic acid]", "values": [{"measurement": "Initiation Frequency (%)", "setting": "[3]", "result": 40.2, "unit": "%"}]}
